Assay results: US6682892B2, “Method for treating herpes viruses” (priority 2000, dated 2004)

Tests used:
HSV-1 F = test: Plaque reduction assay, HSV-1 F; format: cell-based; conditions: Table 1, plaque reduction, Vero cells
Procedure: (§1) Antiviral activity of compounds against herpesviruses such as HSV-1, HSV-2, or HCMV can be measured using plaque reduction assays. 0.1 ml of media containing approximately 50 PFU of virus is added to each well of a 24-well cell culture dish containing a confluent monolayer of cells (Vero cells for HSV-1 and HSV-2, HFF cells for HCMV). Compounds are dissolved in 100% DMSO and diluted in 100% DMSO as 200× stocks of the desired final drug concentration. Typically 5-6 two-fold dilutions are prepared for each compound. Dilutions of compounds are then added to media containing 0.8% CMC resulting in a final 1× drug concentration. After the virus-infected cells have incubated for 1 h at 37° C., the virus innoculum is removed and 1 ml of media containing 0.8% CMC and the various concentrations of compound is added to each well of the dish. The dish is incubated at 37° C. for approximately 2-3 days (HSV-1 and HSV-2) or 6-9 days (HCMV) to allow sufficient growth of virus to form plaques in the cell monolayer. Plaques can be observed and counted microscopically or by staining the cells with 0.1% crystal violet in 20% ethanol. […] Antiviral activity of a compound is expressed as the concentration of compound predicted to reduce the number of plaques in a well by 50% (IC50). The IC50 values are calculated by plotting the per cent inhibition vs. concentration of compound using EXCEL software for linear regression.
(§2) A panel of viruses consisting of four strains of HSV-1 (KOS, F, DJL, Patton) and three strains of HSV-2 (MS, 35D, 186) are tested in a plaque reduction assay against four different 4-oxo-DHQ compounds (#1, 2, 4, 5 as shown in FIG. 1), and one 4-oxo-DHTP compound (#3 as shown in FIG. 1) and against Acyclovir. The six drugs inhibited replication of the seven virus strains with IC50 values ranging from 2-10 μM (Table 1). In order to select for 4-oxo-DHQ resistant mutants, HSV-1 strains KOS, F, and DJL along with HSV-2 strains 186 and MS are serially passaged in the presence of 20 uM compound 1. Following the seventh passage, 4-oxo-DHQ resistant virus from each strain are plaque purified three times and high-titer stocks are made.

HSV-1 KOS-M1 (V823A) = test: Plaque reduction assay, 4-oxo-DHQ resistant HSV-1 KOS-M1; format: cell-based; conditions: Table 2, mutant V823A; read-out: IC50 (uM), HSV-1 Kos-M1
Procedure: as §1
(§3) Vero cells are plated out at a density of 3.5×10^5 cells per well in a six well tissue culture plate. Cells are infected with HSV-1 KOS at a multiplicity of infection (moi) of 0.1 pfu/cell and 1 h post infection the cells are overlayed with 3 ml media containing 20 uM of a 4-oxo-DHQ. Cultures are incubated for 20 h at 37° C., freeze/thawed to release cell-associated virus, and 0.1 ml of culture is used to infect a new monolayer of Vero cells (one passage). Serial passage is repeated seven times in the presence of 20 uM drug. Virus isolates are then plaque purified three times prior to preparation of stocks. 4-oxo-DHQ resistant HSV-1 and HSV-2 may also be selected by the marker transfer method described below using wild-type HSV DNA and the corresponding mutant HSV polymerase gene.
as §2

HSV-2 MS-M1 (V826A) = test: Plaque reduction assay, 4-oxo-DHQ resistant HSV-2 MS-M1; format: cell-based; conditions: Table 2, mutant V826A; read-out: IC50 (uM), HSV-2 MS-M1
Procedure: as §1, §3, §2

[1] = biological target: T1, HCMV V823A/V824L polymerase (Human cytomegalovirus, UniProt P08546, V823A/V824L); test: In vitro polymerase assay, mutant HCMV polymerase V823A/V824L; format: biochemical
T1 construct: made in house
T1 sequence (P08546 1-1242 V823A/V824L): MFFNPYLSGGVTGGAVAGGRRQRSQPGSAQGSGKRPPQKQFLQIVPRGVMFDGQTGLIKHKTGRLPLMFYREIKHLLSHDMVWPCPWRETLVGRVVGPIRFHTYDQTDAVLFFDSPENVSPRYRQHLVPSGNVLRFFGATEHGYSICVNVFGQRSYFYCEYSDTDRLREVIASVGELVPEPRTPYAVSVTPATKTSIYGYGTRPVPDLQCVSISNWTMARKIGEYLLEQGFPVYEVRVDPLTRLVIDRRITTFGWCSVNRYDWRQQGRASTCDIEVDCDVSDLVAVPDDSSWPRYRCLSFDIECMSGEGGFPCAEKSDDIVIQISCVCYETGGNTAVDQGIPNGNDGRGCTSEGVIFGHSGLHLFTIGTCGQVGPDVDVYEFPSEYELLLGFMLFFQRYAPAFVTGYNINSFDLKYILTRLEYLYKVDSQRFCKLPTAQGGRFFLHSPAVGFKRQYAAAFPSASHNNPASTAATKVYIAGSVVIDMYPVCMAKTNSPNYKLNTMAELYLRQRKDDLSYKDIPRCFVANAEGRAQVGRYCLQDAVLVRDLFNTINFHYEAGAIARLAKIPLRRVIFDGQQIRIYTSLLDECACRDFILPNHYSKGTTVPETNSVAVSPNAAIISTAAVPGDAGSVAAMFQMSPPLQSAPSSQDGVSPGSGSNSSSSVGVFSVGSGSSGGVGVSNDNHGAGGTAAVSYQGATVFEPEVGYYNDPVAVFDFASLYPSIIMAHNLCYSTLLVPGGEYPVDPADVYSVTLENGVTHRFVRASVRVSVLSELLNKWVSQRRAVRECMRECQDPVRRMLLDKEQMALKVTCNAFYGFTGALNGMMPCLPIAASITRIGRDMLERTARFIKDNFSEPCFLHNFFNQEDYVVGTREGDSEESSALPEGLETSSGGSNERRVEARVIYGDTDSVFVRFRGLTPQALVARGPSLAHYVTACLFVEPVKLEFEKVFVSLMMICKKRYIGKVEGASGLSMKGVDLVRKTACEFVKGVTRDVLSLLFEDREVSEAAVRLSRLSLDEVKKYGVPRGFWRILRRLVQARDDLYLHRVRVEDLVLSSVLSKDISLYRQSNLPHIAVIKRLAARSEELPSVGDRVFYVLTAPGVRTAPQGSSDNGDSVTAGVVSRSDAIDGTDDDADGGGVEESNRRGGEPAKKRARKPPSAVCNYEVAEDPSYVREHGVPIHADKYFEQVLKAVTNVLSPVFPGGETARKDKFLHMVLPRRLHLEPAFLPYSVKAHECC
Procedure: In order to select for a 4-oxo-DHQ HCMV resistant mutant, virus (strain AD169) is serially passaged in the presence of 20 uM a 4-oxo-DHQ. […] In order to determine if both valines need to be changed in order to confer resistance to the 4-oxo-DHQ's, in vitro polymerase assays are done using mutant HCMV polymerases containing either V823A or V823A plus V824L (Table 3).

## Cn1cc(C(=O)NCc2ccc(Cl)cc2)c(=O)c2cc(/C=C\CO)cc(F)c21 [Compound 1]
HSV-1 F
  IC50: 2.5 µM
HSV-1 KOS-M1 (V823A)
  IC50: > 20 µM
HSV-2 MS-M1 (V826A)
  IC50: > 20 µM
[1]; Table 3
  IC50: 42.9 µM
[1]; relative to wild type
  increase in resistance, HCMV V823A/V824L polymerase: *Mutation of the amino acid from valine to alanine and amino acid 824 from valine to leucine results in an 9-fold increase in resistance, relative to wild type.
